Measured values from patent publication JP2008208074A, “ピラジン誘導体を有効成分とする抗がん剤” (Toray Industries Inc, priority 2007, dated 2008).

Key:
[1] = tested on: tumour derived from mouse colon cancer cell line Colon26 [マウス結腸癌細胞株であるColon26細胞由来の腫瘍]; assay: Tumour growth suppression in mouse colon cancer model (Example 2); format: in vivo; conditions: sodium salt of Reference Example 72; BALB/c mice, male, Colon26 tumour s.c.; 20 mg/kg i.v. once daily day 0-3; n=7; day 3
[2] = Body weight and side effects in mouse colon cancer model (Example 2); format: in vivo; conditions: sodium salt of Reference Example 72, 20 mg/kg i.v. once daily day 0-3

O=C(O)Cc1ccn(-c2cncc(-n3ncc4ccc(NC5CCCC5)cc43)n2)c1 [参考例72, 2-(1-(6-(6-(シクロペンチルアミノ)-1H-インダゾール-1-イル)ピラジン-2-イル)-1H-ピロール-3-イル)酢酸, ナトリウム塩]
suppression of estimated tumour volume compared with control group [1]: 29% | body weight difference between treated and control group ([2]; n=7, day 4, result in words): 差は認められなかった | body weight ([2]; BALB/c mice with Colon26 tumour, n=7, weighed day 4, control group 22.9±0.5 g): 22.7 ± 0.5 g | side effects ([2]; mouse, individual level, concluded from body weight, result in words): 副作用を示すことなく
